In US20040152674A1, “Pharmaceutically active compounds and methods of use thereof” (Trustees of Tufts College, priority 1998, published 2004):

Assays:
Experiment in all cases: MIC by broth dilution method (Table 4)
Format in all cases: cell-based
Set-up in all cases: unit not given here
S. aureus RN4250 = S. aureus RN4250 Tc^r; 18 hours
Procedure: (§1) The minimum inhibitory concentration, the lowest concentration of drug that inhibits bacterial growth at 18 hours at their appropriate temperature, is determined by the broth dilution method using L-broth or Muller-Hinton broth. The Muller-Hinton broth was cation-adjusted accordingly and all bacteriological methods were performed as was described by Waitz, J. A., National Commision for Clinical Laboratory Standards Document M7-A2, vol.10, no. 8, pp.13-20, 2nd edition, Villanova, Pa. (1990). The organisms tested represent gram-positive and gram-negative bacterial species that are susceptible to tetracyclines or are resistant to tetracyclines due to the ability to efflux tetracyclines or which confer resistance by ribosomal protection mechanisms. The clinical strains used are either susceptible to tetracyclines or are resistant to them by either drug efflux or ribosomal protection.

S. aureus ATCC12715 = conditions: S. aureus Tc^r ATCC12715; 18 hours
Procedure: as §1

S. aureus MRSA5 = S. aureus MRSA5 Tc^r; 18 hours
Procedure: as §1

E. faecalis ATCC9790 = conditions: E. faecalis Tc^r ATCC9790; 18 hours
Procedure: as §1

S. aureus RN450 = S. aureus RN450 Tc^s; 18 hours
Procedure: as §1

E. faecalis pMV158 = E. faecalis pMV158 Tc^r; 18 hours
Procedure: as §1

E. coli D31m4 = conditions: E. coli D31m4* Tc^r, lipopolysaccharide-deficient mutant; 18 hours
Procedure: as §1

E. faecalis pAM211 = E. faecalis pAM211 Tc^r; 18 hours
Procedure: as §1

E. coli D31m4(pHCM1) = E. coli D31m4(pHCM1) Tcr; 18 hours
Procedure: as §1

SMILES | Antibacterial activity (minimum inhibitory concentration) (S. aureus RN4250) | Antibacterial activity (minimum inhibitory concentration) (S. aureus ATCC12715) | Antibacterial activity (minimum inhibitory concentration) (S. aureus MRSA5) | Antibacterial activity (minimum inhibitory concentration) (E. faecalis ATCC9790) | Antibacterial activity (minimum inhibitory concentration) (S. aureus RN450) | Antibacterial activity (minimum inhibitory concentration) (E. faecalis pMV158) | Antibacterial activity (minimum inhibitory concentration) (E. coli D31m4) | Antibacterial activity (minimum inhibitory concentration) (E. faecalis pAM211) | Antibacterial activity (minimum inhibitory concentration) (E. coli D31m4(pHCM1))
CC1c2ccc(C(C)(C)C)c(O)c2C(=O)C2=C(O)[C@]3(O)C(=O)C(C(N)=O)=C(O)[C@@H](N(C)C)C3C(O)C21 (stereo partly drawn) [A, [4S-(4alpha,12aalpha)]-9-(tert-butyl)-4-(dimethylamino)-1,4,4a,5,5a,6,11,12a-octahydro-3,5,10,12,12a-pentahydroxy-6-methyl-1,11-dioxo-2-naphthacenecarboxamide] | 1.56 | 3.12 | 3.12 | 1.56 | 0.78 | – | – | – | –
CCC(=O)OC1C2C(=C(O)C3(O)C(=O)C(C(N)=O)=C(O)C(N(C)C)C13)C(=O)c1c(ccc(C(C)(C)C)c1O)C2C (stereo not drawn) [B, [4S-(4alpha,12aalpha)]-9-(tert-butyl)-4-(dimethylamino)-5-propionylcarbonyloxy-1,4,4a,5,5a,6,11,12a-octahydro-3,10,12,12a-tetrahydroxy-6-methyl-1,11-dioxo-2-naphthacenecarboxamide] | 0.78 | 1.56 | 3.12 | 1.56 | 0.39 | 0.39 | 6.25 | 0.78 | 6.25
CC(=O)OC1C2C(=C(O)C3(O)C(=O)C(C(N)=O)=C(O)C(N(C)C)C13)C(=O)c1c(ccc(C(C)(C)C)c1O)C2C (stereo not drawn) [C, [4S-(4alpha,12aalpha)]-9-(tert-butyl)-4-(dimethylamino)-5-acetylcarbonyloxy-1,4,4a,5,5a,6,11,12a-octahydro-3,10,12,12a-tetrahydroxy-6-methyl-1,11-dioxo-2-naphthacenecarboxamide] | 0.39 | 0.78 | 1.56 | 0.78 | 0.39 | 0.39 | 3.12 | 0.78 | 3.12
CC(=O)OC(CCC(C)C)c1ccc2c(c1O)C(=O)C1=C(O)C3(O)C(=O)C(C(N)=O)=C(O)C(N(C)C)C3C(O)C1C2C (stereo not drawn) [Compound N, [4S-(4alpha,12aalpha)]-9-[4′-(1′-acetoxy-4′-methyl)pentyl]-4-(dimethylamino)-1,4,4a,5,5a,6,11,12a-octahydro-3,5,10,12,12a-pentahydroxy-6-methyl-1,11-dioxo-2-naphthacenecarboxamide] | 1.56 | 1.56 | 1.56 | 1.56 | 1.56 | 0.78 | 3.12 | 1.56 | 3.12
CC1c2ccc(C(C)(C)C)c(O)c2C(=O)C2=C(O)[C@]3(O)C(=O)C(C(N)=O)=C(O)[C@@H](N(C)C)C3C(OC(=O)C3CCC3)C21 (stereo partly drawn) [D, [4S-(4alpha,12aalpha)]-9-(tert-butyl)-4-(dimethylamino)-5-cyclobutylcarbonyloxy-1,4,4a,5,5a,6,11,12a-octahydro-3,10,12,12a-tetrahydroxy-6-methyl-1,11-dioxo-2-naphthacenecarboxamide] | 3.12 | 3.12 | 1.56 | 0.78 | 0.78 | 50 | 50 | – | 50
CC1c2ccc(C3(C)CCCCC3)c(O)c2C(=O)C2=C(O)[C@]3(O)C(=O)C(C(N)=O)=C(O)[C@@H](N(C)C)C3C(O)C21 (stereo partly drawn) [E, [4S-(4alpha,12aalpha)]-9-[1′-(1′-methyl)cyclohexyl]-4-(dimethylamino)-1,4,4a,5,5a,6,11,12a-octahydro-3,5,10,12,12a-pentahydroxy-6-methyl-1,11-dioxo-2-naphthacenecarboxamide] | 6.25 | 6.25 | 6.25 | 0.39 | 1.56 | – | 25 | – | 25
CC1c2ccc(C3(C)CCC3)c(O)c2C(=O)C2=C(O)[C@]3(O)C(=O)C(C(N)=O)=C(O)[C@@H](N(C)C)C3C(O)C21 (stereo partly drawn) [G, [4S-(4alpha,12aalpha)]-9-[1′-(1′-methyl)cyclobutyl]-4-(dimethylamino)-1,4,4a,5,5a,6,11,12a-octahydro-3,5,10,12,12a-pentahydroxy-6-methyl-1,11-dioxo-2-naphthacenecarboxamide] | 3.12 | 3.12 | 0.08 | 0.78 | 1.56 | – | 6.25 | – | 6.25
CC1c2ccc(C(C)(C)CCCC#N)c(O)c2C(=O)C2=C(O)C3(O)C(=O)C(C(N)=O)=C(O)C(N(C)C)C3C(O)C21 (stereo not drawn) [L, [4S-(4alpha,12aalpha)]-9-[4′-(1′-cyano-4′-methyl)pentyl]-4-(dimethylamino)-1,4,4a,5,5a,6,11,12a-octahydro-3,5,10,12,12a-pentahydroxy-6-methyl-1,11-dioxo-2-naphthacenecarboxamide] | 3.12 | 6.25 | 6.25 | 3.12 | 1.56 | – | – | – | –
CC1c2ccc(C(C)(C)CCC[N+](=O)[O-])c(O)c2C(=O)C2=C(O)[C@]3(O)C(=O)C(C(N)=O)=C(O)[C@@H](N(C)C)C3C(O)C21 (stereo partly drawn) [M, [4S-(4alpha,12a-alpha)]-9-[4′-(1′-nitro-4′-methyl)pentyl]-4-(dimethylamino)-1,4,4a,5,5a,6,11,12a-octahydro-3,5,10,12,12a-pentahydroxy-6-methyl-1,11-dioxo-2-naphthacenecarboxamide] | 0.78 | 1.56 | 0.78 | 0.78 | 3.12 | 0.78 | 12.5 | 0.78 | –
